Reference: patent US9458437B2, “Neuroprotective peptides that inhibit interaction between palmitoyl acyl transferase zinc-finger DHHC type containing 17 (zD17) and c-jun N-terminal kinase (JNK)” (The University of British Columbia, priority 2011, dated 2016)

Experiments:
neuronal cultures = assay: LDH assay and PI staining, NMDA excitotoxicity-induced neuronal cell death; type: cell-based, rat; conditions: for excitotoxicity-induced cell death as measured by LDH release and PI staining: pretreatment, NMDA challenge 1 h, 24 h survival
Protocol: For biochemical studies, neurons were seeded in six-well culture plates with a density of 7.5×10^5 cells per well. For LDH assay and cell death detection, 24-well culture plates were used with a neuron density of 2.5×10^5 cells per well. Neurons of 14-17 days in vitro (DIV) were used for experiments. […] HEK 293 cells were maintained in DMEM (Invitrogen™) supplemented with 10% fetal bovine serum and 1% penicillin/streptomycin. For protein expression in cell lines, cells were transfected with Calcium Phosphate Transfection reagent (Promega™, San Luis Obispo, Calif., USA) and used 24 h later as described previously (Yang et al., 2009). The JNK inhibitor, L-JNKI, was purchased from Alexis Biochemicals™ (San Diego, Calif.). Thrombin was obtained from BIOPUR™ (Bubendorf, Switzerland). Other assay reagents without indication were obtained from Sigma™.
Neuronal cultures were challenged with indicated concentrations of NMDA for 1 h, followed by 24 h survival. The release of lactate dehydrogenase (LDH) was measured with an in vitro toxicology assay kit (Sigma™) according to the manufacturer's instructions. Spectrophotometric measurement was performed on a Multilabel Plate Reader (Envision™ 2103, Perkin Elmer™). The LDH reading represents the primary absorbance at a wavelength of 490 nm after subtraction of background absorbance at 690 nm. LDH readings were then converted to a percentage of neuronal death by dividing by the readings from cultures incubated with 1% triton for 15 min representing total LDH. Following the LDH assay, propidium iodide (PI) (Sigma™) was added to the medium at a final concentration of 1 μg/ml and neurons were stained for 30 min at 30° C. After fixation with 4% paraformaldehyde, neurons were washed with 1×PBS and stained with Hoechst™ 33342 (Sigma™). The fluorescence of PI and Hoechst™ were examined with laser microscopy and analyzed with ImageJ™.

[1] = tested on: middle cerebral artery occlusion (MCAo); assay: transient MCAo in SD rats, adhesive removal test (ART); type: in vivo, Sprague-Dawley rat
Protocol: Adult male Sprague-Dawley (SD) rats weighing 250-290 g were employed for transient middle cerebral artery occlusion. Rats were anaesthetized with 5% isofluorane and maintained with 2% isofluorane in 70% N2O and 30% O2 using a face mask. 5 mg/kg ketoprofen was given pre-surgery to block pain. Rectal temperature was maintained at 37° C. during surgery with a homeothermic blanket system (Harvard Apparatus™, Holliston, Mass.). The scalp was incised at the midline and the skull was exposed. The skull was thinned with a dental drill at a region ipsilateral to the expected ischemia zone (2 mm posterior and 5 mm lateral from the bregma). A laser probe of the Doppler flowmeter (Perimed™, Jäffälla, Sweden) was placed at this location during surgery to detect cerebral blood flow (CBF) (Nagal et al., 2010). Transient MCAo was induced using a method of intraluminal vascular occlusion described elsewhere (Aarts et al., 2002; Belayev et al., 1996; and Longa et al., 1989). Briefly, a poly-L-lysine coated 3-0 monofilament nylon suture (Harvard Apparatus™, Holliston, Mass.) with a rounded tip was advanced from the left common carotid artery into the internal carotid artery until a sudden drop of CBF was noted, indicating the blockade of the origin of the MCA. The success of induction of ischemia was confirmed by a fall of CBF to less than 25% of baseline level and by neurological assessment scores during MCAo (1 h after the onset). Two hours after MCAo, rats were re-anaesthetized and the suture was removed to allow reperfusion, confirmed by the increase of CBF at the same area.
Peptides were synthesized by PepMetric Technologies™ or GL Biochem™ (Shanghai, China). Peptides were prepared freshly in saline on the day of experiment at a stock concentration of 1 mg/ml. 1 mg/kg peptides were administrated at indicated times (30 min before, 2 h after or 6 h after the onset of ischemia) by a single intravenous injection at rat tails. NIMoEscr or NIMoEsh were injected at 4 h after MCAo onset to randomly chosen rats. For long-term studies, peptides were given 2 h after MCAo onset. Injections of NIMoEscr and NIMoEsh were made, brain damage was assessed and functional evaluations performed in a double-blind manner To examine the delivery of the peptide into the brain, 5 mg/kg FITC-labelled NIMoE or only saline was intravenously injected 1 h before perfusion. The rats were then perfused with PBS followed by fixation solution (4% paraformaldehyde in PBS). Brains were removed, postfixed in fixation solution for 2 h and then soaked in 20% sucrose-PBS buffer at 4° C. for 24 h. After rapid freezing in Tissue-Tek™ embedding medium (Sakura™, Torrance, Calif.) on dry ice, 20 μm sections were cut on a cryostat (Leica™ CM3050, Ontario, Canada) and examined for FITC fluorescence by a laser microscopy (Zeiss™, Axiovert 200).
All animals were tested for neurological function during (1 h after onset) and 24 h after MCAo. Motor, sensory and coordination capacities were evaluated with modified Neurological Severity Scores (NSS) (Watanabe et al., 2004; Bederson et al., 1986). […] Coordination functions were assessed with 3 tests including a foot fault test, edge test and balance beam. Performance in the tests was evaluated on a cumulative scale from 0 to 2 (10 tests), except for two tests (tail suspension and balance beam in which scores ranged from 0 to Sand 0 to 4, respectively). […] The time spent on removing the tape from paw within 2 min was recorded.

[2] = tested on: middle cerebral artery occlusion (MCAo); assay: as above; type: in vivo, Sprague-Dawley rat; parameters: unit not given here; conditions: peptide given 4 h after MCAo onset
c-jun = assay: NMDA-induced c-jun phosphorylation in neurons; type: cell-based, rat; conditions: neuronal cultures

| Sequence | excitotoxicity-induced cell death as measured by LDH release and PI staining (neuronal cultures) | adhesive removal test (ART), contralateral side ([1]; scrambled control peptide group) | ART ([2]; day-1) | ART ([2]; day-3) | ART ([2]; day-7) | ART ([2]; day-14) | protection of neurons over NMDA concentrations (neuronal cultures; NMDA 10 μM to 100 μM) | NMDA-induced c-jun phosphorylation (c-jun) | adhesive removal test (ART), contralateral side ([1]; injection +2 h) | adhesive removal test (ART), contralateral side ([1]; injection +4 h) | adhesive removal test (ART), contralateral side ([1]; injection −0.5 h) | somatosensory functions in ART ([1]; MCAo rats) |
| --- | --- | --- | --- | --- | --- | --- | --- | --- | --- | --- | --- | --- |
| HRYRWLTDLLSMVTTPAAPM (NIMoEscr scrambled NIMoE) [negative control peptide resulting from a scrambled NIMoE, reference compound] | no protective effects | 10.80 ± 2.06 s | 12.63±3.14 | 34.13±6.88 | 59.13±5.67 | 81.88±4.44 |  |  |  |  |  |  |
| MTPLMWAAYRTHSVDPTRLL (listed as Homo sapiens) [NIMoE, peptide comprising motif-E of zD17, fused to the cell-membrane transduction domain of HIV-1 Tat for cell experiments] | significantly prevented |  |  |  |  |  | protected neurons against a broad range of NMDA concentrations | able to prevent | 62.1 ± 8.60 s | 60.83 ± 8.13 s | 48.62 ± 8.24 s |  |
| WAAYRTHSVD (listed as Homo sapiens) [NIMoEsh, shorter 10mer of NIMoE, primarily the loop region of motif-E (zD17 196-205)] | significantly prevented |  | 52.57±6.82 | 73.86±9.63 | 94.86±7.33 | 101.43±3.35 |  | able to prevent |  |  |  | large preservation of somatosensory functions |
